# Assay results as given in PubChem BioAssay (NCI).
# Where “and” joins values, the source holds several entries; their conditions need not be identical. Identical values can stand only once.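 Five concentrations, 48 hours, 96-well plates. Here, GI50 denotes the concentration required for 50% inhibition of growth. TGI: total growth inhibition.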
# How the values were obtained:
# Assay in all cases: DTP human tumour cell line panel, 48 h
# 786-0 renal = test system: 786-0 renal
# A498 renal = test system: A498 renal
# A549 NSCLC = test system: A549 NSCLC
# BT-549 breast = test system: BT-549 breast
# CAKI-1 renal = test system: CAKI-1 renal
# CCRF-CEM leukemia = test system: CCRF-CEM leukemia
# COLO 205 colon = test system: COLO 205 colon
# DU-145 prostate = test system: DU-145 prostate
# EKVX NSCLC = test system: EKVX NSCLC
# HCC-2998 colon = test system: HCC-2998 colon
# HCT-116 colon = test system: HCT-116 colon
# HCT-15 colon = test system: HCT-15 colon
# HL-60(TB) leukemia = test system: HL-60(TB) leukemia
# HOP-62 NSCLC = test system: HOP-62 NSCLC
# HOP-92 NSCLC = test system: HOP-92 NSCLC
# HS 578T breast = test system: HS 578T breast
# HT29 colon = test system: HT29 colon
# IGROV1 ovarian = test system: IGROV1 ovarian
# K-562 leukemia = test system: K-562 leukemia
# KM12 colon = test system: KM12 colon
# LOX IMVI melanoma = test system: LOX IMVI melanoma
# M14 melanoma = test system: M14 melanoma
# MALME-3M melanoma = test system: MALME-3M melanoma
# MCF7 breast = test system: MCF7 breast
# MDA-MB-231 breast = test system: MDA-MB-231 breast
# MDA-MB-435 = test system: MDA-MB-435
# MDA-N = test system: MDA-N
# MOLT-4 leukemia = test system: MOLT-4 leukemia
# NCI-H226 lung = test system: NCI-H226 lung
# NCI-H23 lung = test system: NCI-H23 lung
# NCI-H460 lung = test system: NCI-H460 lung
# NCI/ADR-RES ovarian = test system: NCI/ADR-RES ovarian
# OVCAR-3 ovarian = test system: OVCAR-3 ovarian
# OVCAR-4 ovarian = test system: OVCAR-4 ovarian
# OVCAR-5 ovarian = test system: OVCAR-5 ovarian
# OVCAR-8 ovarian = test system: OVCAR-8 ovarian
# PC-3 prostate = test system: PC-3 prostate
# RPMI-8226 leukemia = test system: RPMI-8226 leukemia
# RXF 393 renal = test system: RXF 393 renal
# SF-268 CNS = test system: SF-268 CNS
# SF-295 CNS = test system: SF-295 CNS
# SF-539 CNS = test system: SF-539 CNS
# SK-MEL-2 melanoma = test system: SK-MEL-2 melanoma
# SK-MEL-28 melanoma = test system: SK-MEL-28 melanoma
# SK-MEL-5 melanoma = test system: SK-MEL-5 melanoma
# SK-OV-3 ovarian = test system: SK-OV-3 ovarian
# SN12C renal = test system: SN12C renal
# SNB-19 CNS = test system: SNB-19 CNS
# SNB-75 CNS = test system: SNB-75 CNS
# SR leukemia = test system: SR leukemia
# SW-620 colon = test system: SW-620 colon
# T-47D breast = test system: T-47D breast
# U251 CNS = test system: U251 CNS
# UACC-257 melanoma = test system: UACC-257 melanoma
# UACC-62 melanoma = test system: UACC-62 melanoma
# UO-31 renal = test system: UO-31 renal
# ACHN renal = test system: ACHN renal
# NCI-H522 lung = test system: NCI-H522 lung
# TK-10 renal = test system: TK-10 renal
structure (smiles),measurement,setting,value
CCOC(=O)c1cc2c([nH]1)c(OC(C)=O)cc1c2ccn1Cc1ccccc1,TGI,786-0 renal,> 100 µM
same,TGI,A498 renal,> 100 µM
same,TGI,A549 NSCLC,> 100 µM
same,TGI,BT-549 breast,> 100 µM
same,TGI,CAKI-1 renal,> 100 µM
same,TGI,CCRF-CEM leukemia,> 100 µM
same,TGI,COLO 205 colon,> 100 µM
same,TGI,DU-145 prostate,> 100 µM
same,TGI,EKVX NSCLC,> 100 µM
same,TGI,HCC-2998 colon,> 100 µM
same,TGI,HCT-116 colon,> 100 µM
same,TGI,HCT-15 colon,> 100 µM
same,TGI,HL-60(TB) leukemia,> 100 µM
same,TGI,HOP-62 NSCLC,> 100 µM
same,TGI,HOP-92 NSCLC,> 100 µM
same,TGI,HS 578T breast,> 100 µM
same,TGI,HT29 colon,> 100 µM
same,TGI,IGROV1 ovarian,> 100 µM
same,TGI,K-562 leukemia,> 100 µM
same,TGI,KM12 colon,> 100 µM
same,TGI,LOX IMVI melanoma,> 100 µM
same,TGI,M14 melanoma,> 100 µM
same,TGI,MALME-3M melanoma,> 100 µM
same,TGI,MCF7 breast,> 100 µM
same,TGI,MDA-MB-231 breast,> 100 µM
same,TGI,MDA-MB-435,> 100 µM
same,TGI,MDA-N,> 100 µM
same,TGI,MOLT-4 leukemia,> 100 µM
same,TGI,NCI-H226 lung,> 100 µM
same,TGI,NCI-H23 lung,> 100 µM
same,TGI,NCI-H460 lung,> 100 µM
same,TGI,NCI/ADR-RES ovarian,> 100 µM
same,TGI,OVCAR-3 ovarian,> 100 µM
same,TGI,OVCAR-4 ovarian,> 100 µM
same,TGI,OVCAR-5 ovarian,> 100 µM
same,TGI,OVCAR-8 ovarian,> 100 µM
same,TGI,PC-3 prostate,> 100 µM
same,TGI,RPMI-8226 leukemia,> 100 µM
same,TGI,RXF 393 renal,> 100 µM
same,TGI,SF-268 CNS,> 100 µM
same,TGI,SF-295 CNS,> 100 µM
same,TGI,SF-539 CNS,> 100 µM
same,TGI,SK-MEL-2 melanoma,> 100 µM
same,TGI,SK-MEL-28 melanoma,> 100 µM
same,TGI,SK-MEL-5 melanoma,> 100 µM
same,TGI,SK-OV-3 ovarian,> 100 µM
same,TGI,SN12C renal,> 100 µM
same,TGI,SNB-19 CNS,> 100 µM
same,TGI,SNB-75 CNS,> 100 µM
same,TGI,SR leukemia,> 100 µM
same,TGI,SW-620 colon,> 100 µM
same,TGI,T-47D breast,> 100 µM
same,TGI,U251 CNS,> 100 µM
same,TGI,UACC-257 melanoma,> 100 µM
same,TGI,UACC-62 melanoma,> 100 µM
same,TGI,UO-31 renal,> 100 µM
O=c1cc(/C=C/c2ccc(O)c(O)c2)cc(/C=C/c2ccc(O)c(O)c2)o1,GI50,786-0 renal,5.85 µM
same,TGI,786-0 renal,50 µM and 23.2 µM
same,TGI,A498 renal,23.4 µM
same,GI50,A549 NSCLC,5.48 µM
same,TGI,A549 NSCLC,50 µM and 18.9 µM
same,GI50,ACHN renal,4.01 µM
same,TGI,ACHN renal,18.8 µM and 14.5 µM
same,GI50,BT-549 breast,4.59 µM
same,TGI,BT-549 breast,38.1 µM and 16.8 µM
same,GI50,CAKI-1 renal,4.92 µM
same,TGI,CAKI-1 renal,31.9 µM and 14.6 µM
same,GI50,CCRF-CEM leukemia,2.53 µM
same,TGI,CCRF-CEM leukemia,27.1 µM and 4.86 µM
same,GI50,COLO 205 colon,19.1 µM
same,TGI,COLO 205 colon,24.6 µM and 34.4 µM
same,GI50,DU-145 prostate,5.29 µM
same,TGI,DU-145 prostate,20.2 µM and 22.1 µM
same,TGI,EKVX NSCLC,15 µM and 21.9 µM
same,TGI,HCC-2998 colon,19.3 µM
same,GI50,HCT-116 colon,4.17 µM
same,TGI,HCT-116 colon,15.6 µM and 15.3 µM
same,GI50,HCT-15 colon,4.47 µM
same,TGI,HCT-15 colon,24.1 µM and 18.1 µM
same,TGI,HOP-62 NSCLC,24.8 µM and 22.7 µM
same,GI50,HOP-92 NSCLC,5.16 µM
same,TGI,HOP-92 NSCLC,47.6 µM and 17.3 µM
same,GI50,HS 578T breast,3.96 µM
same,TGI,HS 578T breast,50 µM and 34 µM
same,GI50,HT29 colon,21.5 µM
same,TGI,HT29 colon,23.7 µM and 56.8 µM
same,GI50,IGROV1 ovarian,5.24 µM
same,TGI,IGROV1 ovarian,37.5 µM and 18.1 µM
same,TGI,K-562 leukemia,8.35 µM
same,GI50,KM12 colon,5 µM
same,TGI,KM12 colon,16 µM and 22.7 µM
same,GI50,LOX IMVI melanoma,5.19 µM
same,TGI,LOX IMVI melanoma,50 µM and 19.4 µM
same,GI50,M14 melanoma,8.94 µM
same,TGI,M14 melanoma,21.6 µM and 20.8 µM
same,GI50,MALME-3M melanoma,2.67 µM
same,TGI,MALME-3M melanoma,22.2 µM and 19.1 µM
same,TGI,MCF7 breast,18.8 µM
same,GI50,MDA-MB-231 breast,13.3 µM
same,TGI,MDA-MB-231 breast,28.3 µM and 39.8 µM
same,GI50,MDA-MB-435,3.15 µM
same,TGI,MDA-MB-435,50 µM and 11.6 µM
same,GI50,MDA-N,4.72 µM
same,TGI,MDA-N,50 µM and 17.1 µM
same,TGI,MOLT-4 leukemia,6.48 µM
same,GI50,NCI-H226 lung,11 µM
same,TGI,NCI-H226 lung,35 µM and 33.4 µM
same,GI50,NCI-H23 lung,3.49 µM
same,TGI,NCI-H23 lung,41.9 µM and 20.8 µM
same,GI50,NCI-H460 lung,7.14 µM
same,TGI,NCI-H460 lung,50 µM and 21.6 µM
same,GI50,NCI-H522 lung,1.45 µM
same,GI50,NCI/ADR-RES ovarian,12 µM
same,TGI,NCI/ADR-RES ovarian,50 µM and 52.3 µM
same,GI50,OVCAR-3 ovarian,4.92 µM
same,TGI,OVCAR-3 ovarian,15.2 µM and 22 µM
same,GI50,OVCAR-4 ovarian,3.17 µM
same,TGI,OVCAR-4 ovarian,43.5 µM and 13.8 µM
same,GI50,OVCAR-5 ovarian,18.3 µM
same,TGI,OVCAR-5 ovarian,24.2 µM and 42.2 µM
same,GI50,OVCAR-8 ovarian,5.5 µM
same,TGI,OVCAR-8 ovarian,50 µM and 32 µM
same,GI50,PC-3 prostate,11 µM
same,TGI,PC-3 prostate,19.9 µM and 27.7 µM
same,GI50,RPMI-8226 leukemia,2.25 µM
same,TGI,RPMI-8226 leukemia,14.9 µM and 6.7 µM
same,GI50,RXF 393 renal,3.42 µM
same,TGI,RXF 393 renal,18.9 µM and 9.11 µM
same,GI50,SF-268 CNS,4.17 µM
same,TGI,SF-268 CNS,16.2 µM and 16.5 µM
same,GI50,SF-295 CNS,10.5 µM
same,TGI,SF-295 CNS,19.8 µM and 22.2 µM
same,GI50,SF-539 CNS,3 µM
same,TGI,SF-539 CNS,17.9 µM and 10.7 µM
same,TGI,SK-MEL-2 melanoma,22.7 µM and 34.5 µM
same,TGI,SK-MEL-28 melanoma,50 µM
same,GI50,SK-MEL-5 melanoma,4.75 µM
same,TGI,SK-MEL-5 melanoma,18.1 µM and 19 µM
same,GI50,SK-OV-3 ovarian,13.1 µM
same,TGI,SK-OV-3 ovarian,24.1 µM and 25.8 µM
same,GI50,SN12C renal,6.06 µM
same,TGI,SN12C renal,25.2 µM and 23.7 µM
same,GI50,SNB-19 CNS,5.8 µM
same,TGI,SNB-19 CNS,15.7 µM and 18 µM
same,GI50,SNB-75 CNS,4.3 µM
same,TGI,SNB-75 CNS,18.5 µM and 15.5 µM
same,GI50,SR leukemia,1.99 µM
same,TGI,SR leukemia,14.2 µM and 6.05 µM
same,GI50,SW-620 colon,3.05 µM
same,TGI,SW-620 colon,50 µM and 12.3 µM
same,GI50,T-47D breast,1.95 µM
same,TGI,T-47D breast,27.3 µM and 4.92 µM
same,GI50,TK-10 renal,9.1 µM
same,TGI,TK-10 renal,50 µM and 20.9 µM
same,GI50,U251 CNS,3.61 µM
same,TGI,U251 CNS,14.1 µM and 12.8 µM
same,GI50,UACC-257 melanoma,9.98 µM
same,TGI,UACC-257 melanoma,29.4 µM and 27.5 µM
same,GI50,UACC-62 melanoma,2.5 µM
same,TGI,UACC-62 melanoma,16.6 µM and 6.05 µM
same,TGI,UO-31 renal,14.6 µM
